This is an account of results in ChEMBL document CHEMBL1201862, “PubChem BioAssay data set” (2004).

The structures appear in SMILES notation.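 Each compound was tested at five concentrations against cells in 96-well plates for 48 hours. Here, GI50 denotes the concentration required for 50% inhibition of growth.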 Activity calls are given as the source filed them. Rule as the data show it: active = GI50 up to about 1.1 µM and inactive = higher.

Some test systems named below: Malme-3M; HOP-62; SNB-19; UACC-62; K562; CCRF-CEM; UACC-257; OVCAR-5; HCT-15; Hs-578T; SR; HL-60; SF-295; RXF 393; NCI-H460; A549; OVCAR-3; SN12C; MDA-MB-231; ACHN.
What all share (assay): NCI-60 cell line screen, 48 h

Take `Cc1cc(NS(=O)(=O)c2ccc(NC(NC(=O)C(C(F)(F)F)C(F)(F)F)(C(F)(F)F)C(F)(F)F)cc2)no1`: the GI50 in the experiment with Malme-3M, in the experiment on HOP-62, in the experiment with SNB-19, with UACC-62, with K562 and with CCRF-CEM was > 100 µM (inactive) in each case. Further, the GI50 with UACC-257 was > 100 µM (inactive); in the experiment with OVCAR-5, > 100 µM (inactive); in the experiment with HCT-15, more than 100 µM; in the experiment with Hs-578T it was > 100 µM (inactive); in the experiment with SR it was > 100 µM (inactive); in the experiment on HL-60, > 100 µM (inactive). Moreover, the GI50 with SF-295, with RXF 393, in the experiment on NCI-H460, in the experiment with A549, with OVCAR-3 and in the experiment on SN12C was > 100 µM (inactive) each time. Besides, the GI50 in the experiment with MDA-MB-231 and with ACHN was > 100 µM (inactive) each time.
As to `COc1ccc(NC2Oc3cc4c(cc3C(c3cc(OC)c(OC)c(OC)c3)C2C)OCO4)cc1` (stereo not given), the GI50 in the experiment with Malme-3M was 0.365 µM (active); in the experiment with HOP-62 it was 0.294 µM (active); in the experiment with SNB-19 it was 0.607 µM (active); in the experiment on UACC-62, 0.597 µM (active); in the experiment with K562 it was 0.223 µM (active); in the experiment on CCRF-CEM it was 0.944 µM (active). Moreover, the GI50 with UACC-257 was 0.605 µM (active); in the experiment on OVCAR-5, 2.17 µM (inactive); in the experiment on HCT-15, 0.485 µM; in the experiment on Hs-578T, 0.398 µM (active); in the experiment with SR, 0.352 µM (active); in the experiment on HL-60 it was 0.248 µM (active). In addition, the GI50 was 0.268 µM (active) with SF-295; 0.437 µM (active) in the experiment with RXF 393; 0.429 µM (active) in the experiment on NCI-H460; 0.685 µM (active) in the experiment with A549; 0.255 µM (active) in the experiment with OVCAR-3; 0.541 µM (active) in the experiment with SN12C. Also, the GI50 in the experiment on MDA-MB-231 was 0.881 µM (active); in the experiment with ACHN it was 0.897 µM (active).
For the molecule `O=C(N/N=C\c1cccs1)c1ccncc1`, the GI50 in the experiment with Malme-3M, with HOP-62, with SNB-19, with UACC-62, with K562 and in the experiment with CCRF-CEM was > 100 µM (inactive) in each case. For the same molecule, the GI50 was > 100 µM (inactive) with UACC-257; > 100 µM (inactive) in the experiment on OVCAR-5; more than 100 µM in the experiment on HCT-15; > 100 µM (inactive) in the experiment on Hs-578T; > 100 µM (inactive) in the experiment on SR; > 100 µM (inactive) in the experiment on HL-60. Besides, the GI50 in the experiment with SF-295, in the experiment on RXF 393, in the experiment on NCI-H460, with A549, in the experiment on OVCAR-3 and in the experiment on SN12C was > 100 µM (inactive) throughout. In addition, the GI50 in the experiment on MDA-MB-231 and with ACHN was > 100 µM (inactive) each time.
For the molecule `Cn1c(-c2cccs2)cc(-c2cccs2)c1-c1cccs1`, the GI50 in the experiment on Malme-3M is > 100 µM (inactive); with HOP-62 it was > 100 µM (inactive); in the experiment with SNB-19, > 100 µM (inactive); in the experiment on UACC-62, 11.9 µM (inactive); in the experiment with K562, 51.8 µM (inactive); with CCRF-CEM, 67 µM (inactive). The GI50 in the experiment with UACC-257 is 16.5 µM (inactive); in the experiment on OVCAR-5, > 100 µM (inactive); in the experiment on HCT-15, 21.8 µM; with Hs-578T, 44.5 µM (inactive); in the experiment on SR, 13.6 µM (inactive); with HL-60 it was 33 µM (inactive). Also, the GI50 with SF-295 is > 81.3 µM (inactive); in the experiment on RXF 393 it was 54.2 µM (inactive); in the experiment on NCI-H460 it was 78.7 µM (inactive); with A549 it was > 96.6 µM (inactive); in the experiment with OVCAR-3, 43.8 µM (inactive); in the experiment on SN12C, > 100 µM (inactive). Also, the GI50 with MDA-MB-231 is 98.9 µM (inactive); with ACHN, 75 µM (inactive).
With `CCCCCCCCCCCCCCCCNc1ccn(C2CC(O)C(COC(c3ccccc3)(c3ccccc3)c3ccc(OC)cc3)O2)c(=O)n1` (stereo not given), the GI50 in the experiment with Malme-3M was > 100 µM (inactive); in the experiment with HOP-62, > 100 µM (inactive); in the experiment with SNB-19 it was > 100 µM (inactive); in the experiment on UACC-62, > 100 µM (inactive); in the experiment on K562 it was > 100 µM (inactive); in the experiment with CCRF-CEM, 67.8 µM (inactive). The GI50 with UACC-257 was > 10 µM (inactive); in the experiment on OVCAR-5 it was > 100 µM (inactive); with HCT-15 it was more than 100 µM; with Hs-578T, > 100 µM (inactive); in the experiment on SR, 98.4 µM (inactive); in the experiment on HL-60, > 100 µM (inactive). Also, the GI50 with SF-295, in the experiment with RXF 393, in the experiment on NCI-H460, in the experiment with A549, in the experiment with OVCAR-3 and in the experiment with SN12C was > 100 µM (inactive) in each case. Also, the GI50 with MDA-MB-231 and in the experiment on ACHN was > 100 µM (inactive) each time.
For `CCCCC1Cc2cc(OC)ccc2-c2n1c1cc(OC)ccc1[n+]2C.CCCCC1Cc2cc(OC)ccc2-c2n1c1ccc(OC)cc1[n+]2C` (stereo not given), the GI50 with Malme-3M is 0.935 µM (active); in the experiment on HOP-62, 6.08 µM (inactive); in the experiment with SNB-19, 0.904 µM (active); in the experiment with UACC-62 it was 0.528 µM (active); in the experiment on K562, 0.475 µM (active); in the experiment with CCRF-CEM it was 2.64 µM (inactive). Besides, the GI50 with UACC-257 is 1.04 µM (active); with OVCAR-5, 9.77 µM (inactive); with HCT-15, 21.7 µM; with Hs-578T, 2.77 µM (inactive); in the experiment with SR, 2.44 µM (inactive); in the experiment with HL-60, 0.261 µM (active). The GI50 in the experiment with SF-295 is 2.39 µM (inactive); with RXF 393, 14.2 µM (inactive); with NCI-H460, 3.65 µM (inactive); with A549 it was 1.48 µM (inactive); in the experiment with OVCAR-3, 1.4 µM (inactive); in the experiment on SN12C it was 0.975 µM (active). Also, the GI50 in the experiment on MDA-MB-231 was 2.63 µM (inactive); in the experiment on ACHN, 12.6 µM (inactive).
Take `CCOc1cccc(/C=N\c2ccccc2SSc2ccccc2/N=C\c2cccc(OCC)c2O)c1O`: the GI50 in the experiment with Malme-3M was 10.2 µM (inactive); in the experiment with HOP-62 it was 6.92 µM (inactive); in the experiment with SNB-19, 11.2 µM (inactive); in the experiment with UACC-62, 4.28 µM (inactive); in the experiment on K562, 6.55 µM (inactive); with CCRF-CEM, 3.32 µM (inactive). Moreover, the GI50 is 5.77 µM (inactive) with UACC-257; 4.56 µM (inactive) in the experiment on OVCAR-5; 3.44 µM in the experiment with HCT-15; 16.9 µM (inactive) in the experiment with Hs-578T; 4.25 µM (inactive) in the experiment on SR; 3.7 µM (inactive) in the experiment on HL-60. Further, the GI50 with SF-295 is 12.6 µM (inactive); in the experiment with RXF 393, 7.46 µM (inactive); in the experiment on NCI-H460, 5.48 µM (inactive); in the experiment on A549 it was 10.7 µM (inactive); with OVCAR-3 it was 2.62 µM (inactive); with SN12C it was 9.79 µM (inactive). Further, the GI50 with MDA-MB-231 was 8.95 µM (inactive); with ACHN it was 13.5 µM (inactive).
For `Fc1ccc(C(OCCN2CCN(CCCCl)CC2)c2ccc(F)cc2)cc1`, the GI50 in the experiment on Malme-3M is 17 µM (inactive); with HOP-62, 33 µM (inactive); in the experiment on SNB-19 it was 37.6 µM (inactive); in the experiment with UACC-62 it was 19.1 µM (inactive); in the experiment on K562, 15.3 µM (inactive); in the experiment on CCRF-CEM, 40.2 µM (inactive). The GI50 was 21 µM (inactive) with UACC-257; 23.1 µM (inactive) in the experiment with OVCAR-5; 17.3 µM with HCT-15; 29.9 µM (inactive) in the experiment on Hs-578T; 18.8 µM (inactive) with SR; 0.391 µM (active) in the experiment on HL-60. Besides, the GI50 was 22.9 µM (inactive) with SF-295; 23.7 µM (inactive) with RXF 393; 21.8 µM (inactive) in the experiment with NCI-H460; 35.5 µM (inactive) in the experiment with A549; 25.8 µM (inactive) with OVCAR-3; 25.3 µM (inactive) with SN12C. The GI50 with MDA-MB-231 was 26.5 µM (inactive); with ACHN, 46 µM (inactive).
In the case of `CCC(c1nc2ccccc2c(=O)n1NC(=O)C(C)(C)C)C1(O)CCCCC1` (stereo not given), the GI50 in the experiment on Malme-3M was > 100 µM (inactive); in the experiment on HOP-62, > 100 µM (inactive); in the experiment with SNB-19, > 100 µM (inactive); in the experiment on UACC-62 it was > 100 µM (inactive); with K562, > 100 µM (inactive); in the experiment on CCRF-CEM, 99.5 µM (inactive). Besides, the GI50 in the experiment on UACC-257 is > 100 µM (inactive); in the experiment on OVCAR-5, > 100 µM (inactive); in the experiment with HCT-15 it was more than 100 µM; with Hs-578T, > 100 µM (inactive); with SR, > 100 µM (inactive); in the experiment on HL-60, > 100 µM (inactive). Besides, the GI50 in the experiment with SF-295, in the experiment with RXF 393, with NCI-H460, in the experiment on A549, in the experiment with OVCAR-3 and with SN12C was > 100 µM (inactive) throughout. Besides, the GI50 in the experiment with MDA-MB-231 and in the experiment with ACHN was > 100 µM (inactive) throughout.
As to `CCc1nc(N)nc(N)c1-c1ccc(N2CCNCC2)c([N+](=O)[O-])c1`, the GI50 with Malme-3M was 15.5 µM (inactive); with HOP-62, 19.4 µM (inactive); with SNB-19, 41.5 µM (inactive); with UACC-62, 6.08 µM (inactive); in the experiment with K562 it was 0.718 µM (active); in the experiment on CCRF-CEM, 4.74 µM (inactive). The GI50 is 13.9 µM (inactive) with UACC-257; 30.3 µM (inactive) with OVCAR-5; 35.7 µM in the experiment on HCT-15; 18.5 µM (inactive) in the experiment on Hs-578T; 4.35 µM (inactive) in the experiment on SR; 4.59 µM (inactive) in the experiment with HL-60. The GI50 in the experiment with SF-295 is 7.96 µM (inactive); in the experiment with RXF 393, 24.5 µM (inactive); with NCI-H460 it was 2.11 µM (inactive); with A549 it was 3.09 µM (inactive); in the experiment on OVCAR-3, 35.3 µM (inactive); in the experiment on SN12C it was 22 µM (inactive). For the same molecule, the GI50 in the experiment with MDA-MB-231 was 26.5 µM (inactive); in the experiment on ACHN, 17.9 µM (inactive).
